Where a name gives a salt, the structure may show the parent alone. Read-outs that look alike come from different tables or passages of the source.
Legend:
hERG [1] = target: T1, hERG (Homo sapiens, UniProt Q12809); assay: hERG Assay (QPatch automated patch clamp; single-concentration assay at 30 μM and pIC50 assay)
human H4 receptor [2] = target: T2, human H4 receptor (Homo sapiens, UniProt Q9H3N8); assay: H4 Antagonist Functional Dynamic Mass Redistribution Assay; assay type: cell-based; conditions: H4 antagonist activity; for Kb: read-out: Human H4 DMR fpKb (converted)
T2 construct: expressed in transfected cells; host or cells: HEKf cells transduced with baculovirus
Protocol: H4 Antagonist Functional Dynamic Mass Redistribution Assay
HEKf cells were infected using baculovirus expressing the human H4 receptor, plated into fibronectin-coated EPIC plates at a density of 10,000 cells/well and incubated overnight at 37° C. The medium on cells was changed to 30 μL HBSS with 20 mM HEPES per well and 30 nL DMSO were added per well by LabCyte ECHO acoustic dispensing. Following 2 h equilibration at room temperature, 30 nL of H4 ligands prepared in DMSO were stamped by LabCyte ECHO acoustic dispensing into seeded EPIC plates and cellular dynamic mass redistribution was monitored using a Corning EPIC plate reader. Following 45 min measurement, 30 nL/well of histamine EC80 was added and monitored to obtain antagonist assay data. Maximum baseline-corrected responses in […] were used to generate concentration response curves. EC50 values were generated using a 4-parameter logistical fit equation to quantify agonist potencies. Functional antagonist affinity values were generated using the Cheng-Prusoff equation to calculate a pKb value using the antagonist assay data.

human H4 receptor [3] = target: T2, human H4 receptor; assay: H4 Antagonist Functional cAMP Gi Assay; assay type: cell-based; conditions: H4 antagonist activity; for Kb: read-out: Human H4 CAMP fpKb (converted)
Protocol: H4 Antagonist Functional cAMP Gi Assay
HEKf cells were infected overnight using baculovirus expressing the human H4 receptor, then centrifuged at 1,200 rpm for 5 min, frozen in cell freezing medium (Sigma) and stored at −150° C. On the day of assay, the cells were thawed and resuspended in HBSS with 500 nM IBMX to achieve a density of 1,500 cells/well. H4 ligands were prepared in DMSO and stamped by LabCyte ECHO acoustic dispensing at 25 nL in low volume plates. 10 μL/well cells were plated in the presence of 1 μM forskolin, subjected to centrifugation at 1,200 rpm for 1 min and incubated for 30 min prior to addition of Cisbio cAMP detection reagents to a total volume 20 μL/well. For the antagonist assay, cells were pre-incubated with H4 antagonist ligands for 30 min prior to addition of EC80 concentration of histamine and a further 30 min incubation. Following detection reagent addition and shaking at room temperature for 60 min, cAMP accumulation was measured using HTRF on a PheraStar plate reader. EC50 values were generated using a 4-parameter logistical fit equation to quantify agonist potencies. Functional antagonist affinity values were generated using the Cheng-Prusoff equation to calculate a pKb value using the antagonist assay data.

hERG [4] = target: T1, hERG; assay: in vitro
[5] = human, CHO cells stably expressing hERG

T1 sequence (Q12809 whole entry): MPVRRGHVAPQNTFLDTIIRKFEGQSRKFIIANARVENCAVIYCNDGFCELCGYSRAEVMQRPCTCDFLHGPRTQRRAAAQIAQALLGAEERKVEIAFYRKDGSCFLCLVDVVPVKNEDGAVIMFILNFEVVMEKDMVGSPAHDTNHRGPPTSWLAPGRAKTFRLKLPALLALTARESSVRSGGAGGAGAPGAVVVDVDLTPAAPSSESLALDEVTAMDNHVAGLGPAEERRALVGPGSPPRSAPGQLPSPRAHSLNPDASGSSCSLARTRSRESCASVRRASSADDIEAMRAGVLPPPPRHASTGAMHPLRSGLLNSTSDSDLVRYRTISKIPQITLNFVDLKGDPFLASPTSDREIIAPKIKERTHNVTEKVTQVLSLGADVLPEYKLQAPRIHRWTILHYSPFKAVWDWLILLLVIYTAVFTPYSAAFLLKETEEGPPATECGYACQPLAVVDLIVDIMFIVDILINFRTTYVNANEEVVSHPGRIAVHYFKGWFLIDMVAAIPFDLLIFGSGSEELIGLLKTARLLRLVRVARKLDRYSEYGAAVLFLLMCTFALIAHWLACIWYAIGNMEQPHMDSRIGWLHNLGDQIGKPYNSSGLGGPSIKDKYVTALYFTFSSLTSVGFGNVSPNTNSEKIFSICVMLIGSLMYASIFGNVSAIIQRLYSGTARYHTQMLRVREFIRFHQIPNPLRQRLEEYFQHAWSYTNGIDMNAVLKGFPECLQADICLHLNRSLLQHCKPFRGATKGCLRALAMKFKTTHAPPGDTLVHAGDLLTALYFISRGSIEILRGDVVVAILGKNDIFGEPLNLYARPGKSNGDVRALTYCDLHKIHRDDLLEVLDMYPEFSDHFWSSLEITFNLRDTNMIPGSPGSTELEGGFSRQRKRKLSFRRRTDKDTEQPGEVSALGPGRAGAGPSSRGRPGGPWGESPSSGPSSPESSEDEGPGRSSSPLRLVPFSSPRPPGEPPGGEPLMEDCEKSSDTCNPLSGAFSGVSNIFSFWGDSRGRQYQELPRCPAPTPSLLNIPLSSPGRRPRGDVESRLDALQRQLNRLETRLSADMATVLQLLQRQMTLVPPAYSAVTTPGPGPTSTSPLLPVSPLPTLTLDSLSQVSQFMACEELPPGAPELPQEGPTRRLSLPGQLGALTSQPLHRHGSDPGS
T2 sequence (Q9H3N8 whole entry): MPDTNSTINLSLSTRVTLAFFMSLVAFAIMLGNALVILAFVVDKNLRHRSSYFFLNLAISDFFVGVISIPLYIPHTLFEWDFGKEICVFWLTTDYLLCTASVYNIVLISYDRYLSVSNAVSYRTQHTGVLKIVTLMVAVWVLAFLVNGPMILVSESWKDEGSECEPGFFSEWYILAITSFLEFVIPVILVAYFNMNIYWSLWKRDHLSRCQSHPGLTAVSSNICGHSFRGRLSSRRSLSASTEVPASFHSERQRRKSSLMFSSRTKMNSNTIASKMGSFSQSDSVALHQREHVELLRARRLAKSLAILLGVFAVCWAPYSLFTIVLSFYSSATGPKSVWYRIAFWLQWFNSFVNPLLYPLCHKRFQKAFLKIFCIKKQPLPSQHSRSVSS

| Compound | inhibition at 30 µM (hERG [1]; [5]) | Kb (human H4 receptor [2]) | Kb (human H4 receptor [3]) | further results |
| --- | --- | --- | --- | --- |
| CN[C@@H]1CCN(c2cc(-c3[nH]ncc3C)nc(N)n2)C1 [Example 4-1, (R)-4-(4-methyl-1H-pyrazol-5-yl)-6-(3-(methylamino)pyrrolidin-1-yl)pyrimidin-2-amine] | 14% | 0.000501 µM | 0.00126 µM | IC50 (hERG [1]): ≥ 100 µM |
| CN[C@@H]1CCN(c2cc(-c3[nH]ncc3Cl)nc(N)n2)C1 [Example 4-3, (R)-4-(4-chloro-1H-pyrazol-5-yl)-6-(3-(methylamino)pyrrolidin-1-yl)pyrimidin-2-amine] | 34% | 0.00126 µM | 0.00126 µM |  |
| Cc1cn[nH]c1-c1cc(N2CC[C@@H](N)C2)nc(N)n1 [Example 4-5] | 18% | 0.00251 µM | 0.01 µM |  |
| CN[C@@H]1CCN(c2cc(-c3[nH]nc(C)c3C)nc(N)n2)C1 [Example 7-1, (R)-4-(3,4-dimethyl-1H-pyrazol-5-yl)-6-(3-(methylamino)pyrrolidin-1-yl)pyrimidin-2-amine dihydrochloride] | 14% | 0.02 µM | 0.00631 µM |  |
| CCc1n[nH]c(-c2cc(N3CC[C@@H](NC)C3)nc(N)n2)c1C [Example 7-3] |  | 0.02 µM | 0.0316 µM |  |
| CN[C@@H]1CCN(c2cc(-c3cnn(C)c3)nc(N)n2)C1 [Example 8-2] | 13% | 0.00126 µM | 0.0316 µM |  |
| CN[C@@H]1CCN(c2cc(-c3cnn(C4CC4)c3)nc(N)n2)C1 [Example 8-4] | 54% | 0.02 µM | 0.0501 µM |  |
| CN[C@@H]1CCN(c2cc(-c3cnn(C(F)(F)F)c3)nc(N)n2)C1 [Example 8-7, dihydrochloride] | 49% | 0.00398 µM | 0.00316 µM | IC50 (hERG [1]; [5]): 31.6 µM |
| CN[C@@H]1CCN(c2cc(-c3cnn(CCOC)c3)nc(N)n2)C1 [Example 8-10] |  | 0.126 µM | 0.126 µM | IC50 (hERG [1]): ≥ 100 µM |
| CNC1CN(c2cc(-c3cnn(C(F)(F)F)c3)nc(N)n2)C1 [Example 8-16, ditrifluoroacetate] | 33% | 0.00158 µM | 0.000794 µM | IC50 (hERG [1]): > 100 µM |
| CN[C@@H]1CCN(c2cc(-c3cn[nH]c3C)nc(N)n2)C1 [Example 9-1] |  | 0.00398 µM | 0.00794 µM | IC50 (hERG [1]): ≥ 100 µM |
| CN[C@@H]1CCN(c2cc(-c3cn[nH]c3C(C)C)nc(N)n2)C1 [Example 9-3] | 24% | 0.0158 µM | 0.0158 µM |  |
| CN[C@@H]1CCN(c2cc(-c3cn[nH]c3C(F)(F)F)nc(N)n2)C1 [Example 9-6] | 18% | 0.00251 µM | 0.00631 µM |  |
| Cc1[nH]ncc1-c1cc(N2CC[C@@H](N)C2)nc(N)n1 [Example 9-7] | 12% | 0.01 µM | 0.0158 µM |  |
| CN[C@@H]1CCN(c2cc(-c3c(C)n[nH]c3C)nc(N)n2)C1 [Example 10-1] | 21% | 0.0398 µM | 0.0501 µM |  |
| CN[C@@H]1CCN(c2cc(-c3cn(C)nc3C)nc(N)n2)C1 [Example 11-1, (R)-4-(1,3-dimethyl-1H-pyrazol-4-yl)-6-(3-(methylamino)pyrrolidin-1-yl)pyrimidin-2-amine] | 2% | 0.00251 µM | 0.0126 µM | IC50 (hERG [1]): ≥ 100 µM |
| CCc1nn(C)cc1-c1cc(N2CC[C@@H](NC)C2)nc(N)n1 [Example 11-2, dihydrochloride] | 20% | 0.0794 µM | 0.0794 µM |  |
| CN[C@@H]1CCN(c2cc(-c3cn(C(F)F)nc3C)nc(N)n2)C1 [Example 11-6] | 90% | 0.00398 µM | 0.00631 µM |  |
| CN[C@@H]1CCN(c2cc(-c3cnn(C)c3C)nc(N)n2)C1 [Example 12-1] |  | 0.00251 µM | 0.00794 µM | IC50 (hERG [1]): ≥ 100 µM |
| CN[C@@H]1CCN(c2cc(-c3cnn(C(F)F)c3C)nc(N)n2)C1 [Example 12-3] | 47% | 0.00631 µM | 0.0158 µM |  |
| CN[C@@H]1CCN(c2cc(-c3c(C)nn(C)c3C)nc(N)n2)C1 [Example 13-1] | 7% | 0.00501 µM | 0.02 µM |  |

| Compound | inhibition at 30 µM (hERG [1]; [5]) | Kb (human H4 receptor [2]) | Kb (human H4 receptor [3]) | further results |
| --- | --- | --- | --- | --- |
| CN[C@@H]1CCN(c2cc(N)nc(-c3cnn(C)c3C)c2)C1 [Example 14-1, (R)-6-(1,5-dimethyl-1H-pyrazol-4-yl)-4-(3-(methylamino)pyrrolidin-1-yl)pyridin-2-amine dihydrochloride] |  | 0.0126 µM | 0.02 µM |  |
| CNC1CN(c2cc(-c3cc(C(F)(F)F)n[nH]3)nc(N)n2)C1 [Example 15-2] |  | 0.01 µM |  |  |
| Cc1cn[nH]c1-c1cc(N2C[C@H]3CCCN[C@H]3C2)nc(N)n1 [Example 16-7, ditrifluoroacetate] |  | 0.00631 µM |  | IC50 (hERG [1]): ≥ 100 µM |
| CN[C@@H]1CCN(c2cc(-c3[nH]ncc3C(F)F)nc(N)n2)C1 [Example 16-8, ditrifluoroacetate] |  | 0.0251 µM |  |  |
| CN[C@@H]1CCN(c2cc(-c3[nH]ncc3C(F)(F)F)nc(N)n2)C1 [Example 16-9, ditrifluoroacetate] |  | 0.02 µM |  |  |
| CN[C@@H]1CCN(c2cc(-c3[nH]ncc3Br)nc(N)n2)C1 [Example 16-12] | 45% | 0.000126 µM | 0.000398 µM |  |
| CNC1CN(c2cc(-c3[nH]ncc3Br)nc(N)n2)C1 [Example 16-13] |  | 0.00501 µM |  |  |
| CN[C@@H]1CCN(c2cc(-c3[nH]ncc3SC)nc(N)n2)C1 [Example 16-14] |  | 0.0251 µM |  |  |
| CNC1CN(c2cc(-c3[nH]nc(C)c3C)nc(N)n2)C1 [Example 17-1] |  | 0.00158 µM |  | IC50 (hERG [1]): ≥ 31.6 µM |
| CN[C@@H]1CCN(c2cc(-c3[nH]nc(C)c3F)nc(N)n2)C1 [Example 17-3] |  | 0.00398 µM |  |  |
| CN[C@H]1CCN(c2cc(-c3[nH]nc(C)c3Cl)nc(N)n2)C1 [Example 17-4, dihydrochloride] | 39% | 0.00501 µM |  |  |
| CNC1CN(c2cc(-c3[nH]nc(C)c3Cl)nc(N)n2)C1 [Example 17-5] |  | 0.000794 µM |  | IC50 (hERG [1]): 25.1 µM |
| Cc1n[nH]c(-c2cc(N3CC(N)C3)nc(N)n2)c1Cl [Example 17-6, ditrifluoroacetate] |  | 0.0126 µM |  |  |
| Cc1n[nH]c(-c2cc(N3C[C@H]4CCCN[C@H]4C3)nc(N)n2)c1Cl [Example 17-7, dihydrochloride] |  | 0.0316 µM |  | inhibition at 30 µM (hERG [4]): 38% |
| CN[C@@H]1CCN(c2cc(-c3[nH]nc(C)c3O)nc(N)n2)C1 [Example 17-8] |  | 0.0398 µM |  |  |
| CN[C@@H]1CCN(c2cc(-c3[nH]nc(C)c3OC)nc(N)n2)C1 [Example 17-9] |  | 0.00398 µM |  |  |
| CNC1CN(c2cc(-c3[nH]nc(C(F)F)c3C)nc(N)n2)C1 [Example 17-11, ditrifluoroacetate] |  | 0.00316 µM |  |  |
| CCc1n[nH]c(-c2cc(N3CC[C@@H](NC)C3)nc(N)n2)c1F [Example 17-13] |  | 0.0501 µM |  |  |
| CN[C@@H]1CCN(c2cc(-c3[nH]nc(OC)c3Cl)nc(N)n2)C1 [Example 17-17] | 49% | 0.00501 µM |  |  |
| CN[C@@H]1CCN(c2cc(N)nc(-c3[nH]ncc3C)c2)C1 [Example 18-1, ditrifluoroacetate] |  | 0.000631 µM |  |  |
| CC(C)c1cc(N2CC[C@@H](N)C2)nc(N)n1 [JNJ-39758979] |  |  |  | hERG pIC50 (hERG [1]; QPatch, 1, 3, 10 and 30 μM): ≤4.0; Human H4 DMR fpKb (human H4 receptor [2]): 8.5; Human H4 CAMP fpKb (human H4 receptor [3]): 8.1 |
